Data taken from PubChem BioAssay AID192 (DTP/NCI, 2004).
Values joined by “and” are separate entries in the source; they are usually repeats but may differ in a detail not shown here. Equal entries are not always repeated. Toxic doses and inconclusive results are not listed.

System: BDF1 mice, B16 melanoma ip, median survival T/C
Assay: NCI In Vivo Anticancer Drug Screen. Data for tumor model B16 Melanoma (intraperitoneal) in B6D2F1 (BDF1) mice
Conditions: endpoint: median survival time, higher = longer survival
Method in brief: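 Transplantable tumor model; survival or tumor size measured; reported as T/C, treated over vehicle control.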

[1] = dose: 1.56 mg/kg/injection, schedule: Q01DX009 (ip), vehicle: saline
[2] = dose: 12.5 mg/kg/injection, schedule: Q01DX009 (ip), vehicle: Klucel (hydroxypropylcellulose) (HPC)
[3] = dose: 25.0 mg/kg/injection, schedule: Q01DX009 (ip), vehicle: Klucel (hydroxypropylcellulose) (HPC)
[4] = dose: 50.0 mg/kg/injection, schedule: Q01DX009 (ip), vehicle: Klucel (hydroxypropylcellulose) (HPC)
[5] = dose: 100.0 mg/kg/injection, schedule: Q01DX009 (ip), vehicle: Klucel (hydroxypropylcellulose) (HPC)

COc1cccc2c1C(=O)c1c(O)c3c(c(O)c1C2=O)C[C@@](O)(C(C)=O)C[C@@H]3OC1CC(N)C(O)C(C)O1 (some centres undefined)
T/C (dose: 0.06 mg/kg/injection, schedule: Q01DX017 (ip), vehicle: clinical formulation): 184 % of control | T/C (dose: 0.06 mg/kg/injection, schedule: Q05DX010 (ip), vehicle: clinical formulation): 160 % of control | T/C (dose: 0.12 mg/kg/injection, schedule: Q01DX009 (ip), vehicle: clinical formulation): 168 % of control | T/C (dose: 0.12 mg/kg/injection, schedule: Q01DX017 (ip), vehicle: clinical formulation): 178 % of control | T/C (dose: 0.12 mg/kg/injection, schedule: Q05DX010 (ip), vehicle: clinical formulation): 165 % of control | T/C (dose: 0.13 mg/kg/injection, schedule: Q01DX009 (ip), vehicle: water): 189 % of control | T/C (dose: 0.2 mg/kg/injection, schedule: Q01DX009 (ip), vehicle: saline): 170 % of control | T/C (dose: 0.25 mg/kg/injection, schedule: Q01DX009 (ip), vehicle: clinical formulation): 192 % of control | T/C (dose: 0.25 mg/kg/injection, schedule: Q01DX017 (ip), vehicle: clinical formulation): 226 % of control | T/C (dose: 0.25 mg/kg/injection, schedule: Q03HX008 (ip), vehicle: saline): 152 % of control | T/C (dose: 0.25 mg/kg/injection, schedule: Q04DX003 (ip), vehicle: clinical formulation): 162 % of control | T/C (dose: 0.25 mg/kg/injection, schedule: Q04DX005 (ip), vehicle: clinical formulation): 165 % of control | T/C (dose: 0.25 mg/kg/injection, schedule: Q05DX010 (ip), vehicle: clinical formulation): 237 % of control | T/C (dose: 0.39 mg/kg/injection, schedule: Q01DX009 (ip), vehicle: saline): 212 % of control | T/C (dose: 0.5 mg/kg/injection, schedule: Q01DX009 (ip), vehicle: clinical formulation): 292 % of control | T/C (dose: 0.5 mg/kg/injection, schedule: Q01DX017 (ip), vehicle: clinical formulation): 315 % of control | T/C (dose: 0.5 mg/kg/injection, schedule: Q04DX005 (ip), vehicle: clinical formulation): 215 % of control | T/C (dose: 0.5 mg/kg/injection, schedule: Q05DX010 (ip), vehicle: clinical formulation): 235 % of control | T/C (dose: 0.5 mg/kg/injection, schedule: Q11DX018 (sc), vehicle: water): 100 % of control | T/C (dose: 0.78 mg/kg/injection, schedule: Q01DX009 (ip), vehicle: saline): 238 % of control | T/C (dose: 1.0 mg/kg/injection, schedule: Q01DX001 (ip), vehicle: clinical formulation): 223 % of control | T/C (dose: 1.0 mg/kg/injection, schedule: Q01DX009 (ip), vehicle: clinical formulation): 204 % of control | T/C (dose: 1.0 mg/kg/injection, schedule: Q01DX017 (ip), vehicle: clinical formulation): 213 % of control | T/C (dose: 1.0 mg/kg/injection, schedule: Q04DX003 (ip), vehicle: clinical formulation): 217 % of control | T/C (dose: 1.0 mg/kg/injection, schedule: Q04DX005 (ip), vehicle: clinical formulation): 194 % of control | T/C (dose: 1.0 mg/kg/injection, schedule: Q05DX010 (ip), vehicle: clinical formulation): 200 % of control | T/C (dose: 1.0 mg/kg/injection, schedule: Q11DX018 (sc), vehicle: water): 111 % of control | T/C (dose: 1.5 mg/kg/injection, schedule: Q01DX001 (ip), vehicle: water): 287 % of control | T/C [1]: 150 % of control | T/C (dose: 2.0 mg/kg/injection, schedule: Q01DX001 (ip), vehicle: clinical formulation): 204 % of control | T/C (dose: 2.0 mg/kg/injection, schedule: Q01DX009 (ip), vehicle: clinical formulation): 187 % of control | T/C (dose: 2.0 mg/kg/injection, schedule: Q04DX003 (ip), vehicle: clinical formulation): 215 % of control | T/C (dose: 2.0 mg/kg/injection, schedule: Q04DX005 (ip), vehicle: clinical formulation): 160 % of control | T/C (dose: 2.0 mg/kg/injection, schedule: Q05DX010 (ip), vehicle: clinical formulation): 110 % of control | T/C (dose: 3.0 mg/kg/injection, schedule: Q01DX001 (ip), vehicle: water): 287 % of control | T/C (dose: 4.0 mg/kg/injection, schedule: Q01DX001 (ip), vehicle: clinical formulation): 285 % of control | T/C (dose: 6.0 mg/kg/injection, schedule: Q01DX001 (ip), vehicle: water): 94 % of control and 103 % of control | T/C (dose: 7.5 mg/kg/injection, schedule: Q01DX001 (ip), vehicle: water): 107 % of control and 122 % of control | T/C (dose: 10.0 mg/kg/injection, schedule: Q01DX001 (ip), vehicle: water): 110 % of control

CCC(=O)NCC1(c2ccccc2)CCN(CC2COc3ccccc3O2)CC1 (centres undefined)
T/C (dose: 25.0 mg/kg/injection, schedule: Q04DX003 (ip), vehicle: saline): 116 % of control | T/C (dose: 50.0 mg/kg/injection, schedule: Q04DX003 (ip), vehicle: saline): 107 % of control | T/C (dose: 100.0 mg/kg/injection, schedule: Q04DX003 (ip), vehicle: saline): 105 % of control

CCO/C=C1\SC(=S)N(c2cccc(C)c2)C1=O
T/C [2]: 94 % of control | T/C [3]: 97 % of control | T/C [4]: 100 % of control | T/C [5]: 87 % of control | T/C (dose: 100.0 mg/kg/injection, schedule: Q04DX003 (ip), vehicle: Klucel (hydroxypropylcellulose) (HPC)): 100 % of control | T/C (dose: 200.0 mg/kg/injection, schedule: Q04DX003 (ip), vehicle: Klucel (hydroxypropylcellulose) (HPC)): 89 % of control | T/C (dose: 400.0 mg/kg/injection, schedule: Q04DX003 (ip), vehicle: Klucel (hydroxypropylcellulose) (HPC)): 92 % of control

CCCCCCCCCC(=O)OCCN1CCN(CCCN2c3ccccc3Sc3ccc(C(F)(F)F)cc32)CC1
T/C (dose: 0.09 mg/kg/injection, schedule: Q01DX009 (ip), vehicle: alcohol): 97 % of control | T/C (dose: 0.19 mg/kg/injection, schedule: Q01DX009 (ip), vehicle: alcohol): 123 % of control | T/C (dose: 0.39 mg/kg/injection, schedule: Q01DX009 (ip), vehicle: alcohol): 111 % of control

CCCCCCCCCCCCCCCC(=O)N(CCCN(C)C)CCCN(CCCN(C)C)C(=O)CCCCCCCCCCCCCCC
T/C (dose: 1.56 mg/kg/injection, schedule: Q01DX009 (ip), vehicle: water): 106 % of control | T/C (dose: 3.13 mg/kg/injection, schedule: Q01DX009 (ip), vehicle: water): 101 % of control | T/C (dose: 6.25 mg/kg/injection, schedule: Q01DX009 (ip), vehicle: water): 92 % of control | T/C (dose: 12.5 mg/kg/injection, schedule: Q01DX009 (ip), vehicle: water): 87 % of control

COc1cc(C(N)=O)cc(OC)c1O
T/C (dose: 100.0 mg/kg/injection, schedule: Q01DX009 (ip), vehicle: saline): 115 % of control | T/C (dose: 200.0 mg/kg/injection, schedule: Q01DX009 (ip), vehicle: saline): 110 % of control | T/C (dose: 400.0 mg/kg/injection, schedule: Q01DX009 (ip), vehicle: saline): 118 % of control

CC(C)=CC(=O)OCC[N+](C)(C)C
T/C [1]: 114 % of control | T/C (dose: 3.12 mg/kg/injection, schedule: Q01DX009 (ip), vehicle: saline): 112 % of control | T/C (dose: 6.25 mg/kg/injection, schedule: Q01DX009 (ip), vehicle: saline): 104 % of control | T/C (dose: 12.5 mg/kg/injection, schedule: Q01DX009 (ip), vehicle: saline): 102 % of control | T/C (dose: 25.0 mg/kg/injection, schedule: Q01DX009 (ip), vehicle: saline): 101 % of control

COc1ccc(-c2c(CC(=O)O)c3cc(OC)ccc3n2Cc2ccc(Cl)cc2)cc1
T/C [5]: 95 % of control | T/C (dose: 100.0 mg/kg/injection, schedule: Q04DX003 (ip), vehicle: saline with Tween-80): 100 % of control | T/C (dose: 200.0 mg/kg/injection, schedule: Q01DX009 (ip), vehicle: Klucel (hydroxypropylcellulose) (HPC)): 94 % of control | T/C (dose: 200.0 mg/kg/injection, schedule: Q04DX003 (ip), vehicle: saline with Tween-80): 95 % of control | T/C (dose: 400.0 mg/kg/injection, schedule: Q01DX009 (ip), vehicle: Klucel (hydroxypropylcellulose) (HPC)): 95 % of control | T/C (dose: 400.0 mg/kg/injection, schedule: Q04DX003 (ip), vehicle: saline with Tween-80): 95 % of control

C=C1N(C)c2ccc(Cl)cc2C1(C)C
T/C [2]: 90 % of control | T/C [3]: 90 % of control | T/C [4]: 88 % of control | T/C [5]: 87 % of control

CC/C(=C(/CC)c1ccc(O)cc1)c1ccc(O)cc1
T/C (dose: 6.25 mg/kg/injection, schedule: Q01DX009 (ip), vehicle: saline with Tween-80): 89 % of control | T/C (dose: 12.5 mg/kg/injection, schedule: Q01DX009 (ip), vehicle: saline with Tween-80): 89 % of control | T/C (dose: 25.0 mg/kg/injection, schedule: Q01DX009 (ip), vehicle: saline with Tween-80): 89 % of control and 102 % of control | T/C (dose: 50.0 mg/kg/injection, schedule: Q01DX009 (ip), vehicle: saline with Tween-80): 100 % of control | T/C (dose: 200.0 mg/kg/injection, schedule: Q01DX009 (ip), vehicle: saline with Tween-80): 97 % of control
